Values joined by “and” are separate entries in the source; they are usually repeats but may differ in a detail not shown here. Equal entries are not always repeated. Where two headings read alike, the source gives them in different places.
Experiment: Pharmacokinetics of AT and NT in healthy volunteers after a single dose of 25 mg amitriptyline
Format: in vivo, human
Settings: for AUC(0-inf) / AUC(0-t) / Cmax / Tmax / half-life: both sexes, human, plasma, po, 25 mg, single oral 25 mg AT; for AUC(0-t): read-out: AUC48h; for Cmax: read-out: Cmax
Description: In order to enrich the study sample with the less frequent functionally deficient OCT1 variants, participants were selected based on OCT1 genotype from an internal database at the Institute of Clinical Pharmacology of the University Medical Center Göttingen. All volunteers who are listed in the internal database had agreed to it and the database was approved by the ethics committee of the University of Göttingen. […] Additional subjects with heterozygous genotypes were included to provide a better understanding of the effects of specific variants and the mode of inheritance. All volunteers gave their written informed consent before participation in the study. The study was approved by the ethics committee of the University of Göttingen and the German Federal Institute for Drugs and Medical Devices (BfArM). It was registered at the clinical trials databases Clinicaltrials.gov (NCT02054299) and EudraCT (number 2012-003546-33). […] Volunteers who underwent regular drug treatments other than oral contraceptives or who suffered from any relevant chronic illness, as well as pregnant or lactating women, were not included. All subjects were healthy according to a detailed medical history, medical examination, electrocardiogram, urine status and clinical chemistry, and haematology parameters (sodium, potassium, total bilirubin, aspartate aminotransferase, alanine-aminotransferase, creatinine, C-reactive protein, thyroid-stimulating hormone, haemoglobin, erythrocyte, thrombocyte, and leucocyte counts). […] After centrifugation (13,000 rpm, 15 min, room temperature), two-thirds of the supernatant were transferred to a new reaction tube and evaporated at 40°C under nitrogen flow. The residue was reconstituted under shaking in 0.1% methanoic acid and briefly centrifuged before quantification using a Nexera UHPLC system (Shimadzu, Kyoto, Japan) coupled to an API 4000 tandem mass spectrometer (AB Sciex, Darmstadt, Germany). […] PerkinElmer, Rodgau, Germany) with a Phenomenex C18 pre-column (4 × 2 mm, Phenomenex, Aschaffenburg, Germany). […] The lower limit of quantification was 0.5 ng/ml for AT and 0.1 ng/ml for NT. […] The mass spectrometry detection parameters are listed in Supplementary Table S1. For the study in healthy volunteers, the primary endpoints were the AUCs of plasma AT and NT concentrations. Secondary endpoints were the other pharmacokinetic parameters of AT and NT, as well as heart rate, blood pressure, pupil size effects, and possible adverse events (headache, fatigue, visual or hearing impairments, restlessness, nausea, dizziness, dry mouth, tremor, as well as sensations of hypothermia and heart palpitations determined using a visual analogue scale test). Pharmacokinetic parameters were calculated by non-compartmental analysis using Phoenix 64 WinNonlin version 6.3 (Certara Inc., Princeton, NJ, United States). AUCinf of AT was calculated from the time of dosing using the linear/log trapezoidal rule and extrapolated to infinity based on the last predicted concentration and using the terminal elimination rate constant (lambda z). AUC of NT was calculated from the time of dosing until the last measurement at 48 h using the linear/log trapezoidal rule, as a decline in NT concentrations was not observed in some subjects and extrapolation to infinity thus not possible.

[1] = healthy volunteers, 0 active OCT1 alleles (n = 12)
[2] = healthy volunteers, 1 active OCT1 allele (n = 9)
[3] = healthy volunteers, 2 active OCT1 alleles (n = 14)
[4] = healthy volunteers, CYP2C19 activity score 1 (n = 5), mean
[5] = healthy volunteers, CYP2C19 activity score 1.5 (n = 2), mean
[6] = healthy volunteers, CYP2C19 activity score 2 (n = 16), mean
[7] = healthy volunteers, CYP2C19 activity score 2.5 (n = 10), mean
[8] = healthy volunteers, CYP2D6 activity 0 (n = 3), mean
[9] = healthy volunteers, CYP2D6 activity 0.5 (n = 2), mean
[10] = healthy volunteers, CYP2D6 activity 1 (n = 10), mean
[11] = healthy volunteers, CYP2D6 activity 1.5 (n = 6), mean
[12] = healthy volunteers, CYP2D6 activity 2 (n = 11), mean
[13] = healthy volunteers, CYP2D6 activity 2.5 (n = 1), mean
[14] = healthy volunteers, CYP2D6 activity 3 (n = 2), mean

CN(C)CCC=C1c2ccccc2CCc2ccccc21 [Amitriptyline, amitriptyline]
maximum concentration of unbound AT in the portal vein (estimated) (based on the calculations by Ahlin et al. and Ito et al., listed as AT): 745.9 µg/L and 2.69 µM | AUC(0-inf) (35 healthy volunteers, read-out: AUCinf (range over all volunteers)): 0.11 to 0.43 µg·h/mL | AUC(0-t) [1]: 0.162 ± 0.0405 µg·h/mL | AUC(0-inf) (healthy volunteers, 0 active OCT1 alleles (n = 12), read-out: AUCinf): 0.199 ± 0.06 µg·h/mL | Cmax [1]: 0.0099 ± 0.0039 µg/mL | AUC(0-t) [2]: 0.184 ± 0.056 µg·h/mL | AUC(0-inf) (healthy volunteers, 1 active OCT1 allele (n = 9), read-out: AUCinf): 0.229 ± 0.0724 µg·h/mL | Cmax [2]: 0.0105 ± 0.0033 µg/mL | AUC(0-t) [3]: 0.194 ± 0.0663 µg·h/mL | AUC(0-inf) (healthy volunteers, 2 active OCT1 alleles (n = 14), read-out: AUCinf): 0.243 ± 0.0875 µg·h/mL | Cmax [3]: 0.0116 ± 0.004 µg/mL | AUC(0-t) [4]: 0.183 µg·h/mL | AUC(0-inf) (healthy volunteers, CYP2C19 activity score 1 (n = 5), mean, read-out: AUCinf): 0.231 µg·h/mL | Cmax [4]: 0.0111 µg/mL | AUC(0-t) [5]: 0.256 µg·h/mL | AUC(0-inf) (healthy volunteers, CYP2C19 activity score 1.5 (n = 2), mean, read-out: AUCinf): 0.317 µg·h/mL | Cmax [5]: 0.0162 µg/mL | AUC(0-t) [6]: 0.172 µg·h/mL | AUC(0-inf) (healthy volunteers, CYP2C19 activity score 2 (n = 16), mean, read-out: AUCinf): 0.21 µg·h/mL | Cmax [6]: 0.0105 µg/mL | AUC(0-t) [7]: 0.171 µg·h/mL | AUC(0-inf) (healthy volunteers, CYP2C19 activity score 2.5 (n = 10), mean, read-out: AUCinf): 0.211 µg·h/mL | Cmax [7]: 0.0095 µg/mL | AUC(0-t) [8]: 0.236 µg·h/mL | AUC(0-inf) (healthy volunteers, CYP2D6 activity 0 (n = 3), mean, read-out: AUCinf): 0.311 µg·h/mL | Cmax [8]: 0.0109 µg/mL | AUC(0-t) [9]: 0.166 µg·h/mL | AUC(0-inf) (healthy volunteers, CYP2D6 activity 0.5 (n = 2), mean, read-out: AUCinf): 0.214 µg·h/mL | Cmax [9]: 0.0127 µg/mL | AUC(0-t) [10]: 0.199 µg·h/mL | AUC(0-inf) (healthy volunteers, CYP2D6 activity 1 (n = 10), mean, read-out: AUCinf): 0.251 µg·h/mL | Cmax [10]: 0.0119 µg/mL | AUC(0-t) [11]: 0.184 µg·h/mL | AUC(0-inf) (healthy volunteers, CYP2D6 activity 1.5 (n = 6), mean, read-out: AUCinf): 0.226 µg·h/mL | Cmax [11]: 0.0103 µg/mL | AUC(0-t) [12]: 0.162 µg·h/mL | AUC(0-inf) (healthy volunteers, CYP2D6 activity 2 (n = 11), mean, read-out: AUCinf): 0.196 µg·h/mL | Cmax [12]: 0.01 µg/mL | AUC(0-t) [13]: 0.142 µg·h/mL | AUC(0-inf) (healthy volunteers, CYP2D6 activity 2.5 (n = 1), mean, read-out: AUCinf): 0.158 µg·h/mL | Cmax [13]: 0.007 µg/mL | AUC(0-t) [14]: 0.13 µg·h/mL | AUC(0-inf) (healthy volunteers, CYP2D6 activity 3 (n = 2), mean, read-out: AUCinf): 0.157 µg·h/mL | Cmax [14]: 0.0102 µg/mL | Tmax [1]: 3.4 ± 1.6 h | half-life [1]: 20.3 ± 3.8 h | Tmax [2]: 3.1 ± 1 h | half-life [2]: 20.5 ± 3.9 h | Tmax [3]: 2.9 ± 1.4 h | half-life [3]: 21 ± 4 h | Tmax [4]: 2.6 h | half-life [4]: 21.6 h | Tmax [5]: 2 h | half-life [5]: 20.3 h | Tmax [6]: 3.2 h | half-life [6]: 20.1 h | Tmax [7]: 3.6 h | half-life [7]: 19.8 h | Tmax [8]: 3.4 h | half-life [8]: 23.7 h | Tmax [9]: 2 h | half-life [9]: 24.2 h | Tmax [10]: 2.7 h | half-life [10]: 21.4 h | Tmax [11]: 3.7 h | half-life [11]: 19.8 h
